Experiments:
[1] = tested on: human OA knee cartilage explants; experiment: GAG release in medium from cartilage explants; assay type: cell-based; conditions: n = 5 donors, 24 h, relative to control (Figure 6B)
Procedure: To determine whether peptide p[63−82] has the potency to alter chondrocyte behavior in cartilage tissue, rather than isolated HACs, cartilage biopsies from OA knees were cultured in the presence of peptide p[63−82], alongside its scrambled version and full-length BMP7.
Figure 6 Peptide p[63−82] activity on OA knee joint tissues Human OA knee joint tissues were cultured for 24 h in the presence of BMP7, peptide p[63−82], or the scrambled version of peptide p[63−82] and compared to control conditions. (A) Cartilage tissues (n = 7 individual donors) were exposed to shown conditions and analyzed for COL2A1, COL10A1, and COX-2 mRNA expression by quantitative real-time PCR (normalized for 28S rRNA expression and relative to control conditions). (B) GAG release in medium from cartilage tissues (n = 5 individual donors) was determined, and data were calculated relative to the control condition. (C) PGE2 levels in culture supernatant from synovium (n = 5 donors). (D) PGE2 levels in culture supernatant from cartilage tissues from (B) (n = 5 donors). (E) PGE2 levels in culture supernatant from IPFP (n = 5 donors). (F) PGE2 levels in culture supernatant from the meniscus. […] PGE2 levels in conditions were calculated relative to controls for each donor. […] Statistical differences (unpaired two-tailed Student’s t test) were calculated to control condition: ∗p < 0.05, ∗∗p < 0.01, and ∗∗∗p < 0.001. […]

[2] = tested on: human OA synovium explants; experiment: PGE2 levels in culture supernatant of synovium explants; assay type: cell-based; conditions: n = 5 donors, 24 h, relative to control (Figure 6C)
Procedure: Figure 6 Peptide p[63−82] activity on OA knee joint tissues Human OA knee joint tissues were cultured for 24 h in the presence of BMP7, peptide p[63−82], or the scrambled version of peptide p[63−82] and compared to control conditions. (A) Cartilage tissues (n = 7 individual donors) were exposed to shown conditions and analyzed for COL2A1, COL10A1, and COX-2 mRNA expression by quantitative real-time PCR (normalized for 28S rRNA expression and relative to control conditions). (B) GAG release in medium from cartilage tissues (n = 5 individual donors) was determined, and data were calculated relative to the control condition. (C) PGE2 levels in culture supernatant from synovium (n = 5 donors). (D) PGE2 levels in culture supernatant from cartilage tissues from (B) (n = 5 donors). (E) PGE2 levels in culture supernatant from IPFP (n = 5 donors). (F) PGE2 levels in culture supernatant from the meniscus. Synovium, IPFP, and meniscus tissues were from the same 5 donors as the cartilage tissues in (B) and (C). PGE2 levels in conditions were calculated relative to controls for each donor. In graphs, error bars represent mean ± SEM; data are presented relative to the control condition for each time point. Statistical differences (unpaired two-tailed Student’s t test) were calculated to control condition: ∗p < 0.05, ∗∗p < 0.01, and ∗∗∗p < 0.001. […]

## BMP7: full-length recombinant bone morphogenetic protein 7 (R&D Systems), used at 1 nM
[1]
  sGAG release from cartilage explants: no inhibitory effect
[2]
  PGE2 levels in culture supernatants of synovial explants: not significantly changed

## H-AAYYSEGESAFPLNSYMNAT-OH [p[63−82]]
[1]
  sGAG release from cartilage explants: no inhibitory effect
[2]
  PGE2 levels in culture supernatants of synovial explants: not significantly changed

From article PMC8022858, “Discovery of bone morphogenetic protein 7-derived peptide sequences that attenuate the human osteoarthritic chondrocyte phenotype” (Molecular Therapy. Methods & Clinical Development, 2021)
